Test results: patent US20240148744A1 (Celgene Corporation, priority 2021, published 2024)
Where two headings read alike, the source gives them in different places.

Legend:
Dirofilaria immitis = assay: Heartworm screen Dirofilaria immitis (stage DiMF/DiL4 not specified in the tables); assay type: cell-based; settings: read-out: D. immitis Activity class
[1] = tested on: Onchocerca gutturosa adult male worms; assay: Onchocerca gutturosa in vitro screening model: adult worm motility score and MTT/formazan viability; assay type: cell-based
[2] = read-out: O. gutt Activity class

| Structure (SMILES) | IC50 (Dirofilaria immitis) [µM] | IC50 [1, 2] [µM] | IC50 ([1]; read-out: O. gutt Activity class, in vitro motility) [µM] |
| --- | --- | --- | --- |
| CN(C)c1cccnc1S(=O)(=O)Nc1c(Cl)ccc2cccnc12 [Compound 99, N-(7-chloro-quinolin-8-yl)-3-(dimethyl-amino)pyridine-2-sulfonamide] | 0.5 to 5 | 0.5 to 5 | – |
| Cc1ccc(S(=O)(=O)Nc2cccc3c(Cl)ccnc23)nc1 [Compound 119, N-(4-chloro-quinolin-8-yl)-5-methylpyr-idine-2-sulfon-amide] | 0.5 to 5 | < 0.2 | – |
| CCn1ccnc1S(=O)(=O)Nc1cccc2cc(C)cnc12 [Compound 105, 1-ethyl-N-(3-methylquin-olin-8-yl)-1H-imidazole-2-sulfonamide] | 0.5 to 5 | < 0.2 | – |
| Cc1ccc(S(=O)(=O)Nc2cccc3nccnc23)nc1 [Compound 196, 5-methyl-N-(quinoxalin-5-yl)pyridine-2-sulfonamide] | 0.2 to 0.5 | 0.2 to 0.5 | – |
| Cc1cn(C)c(S(=O)(=O)Nc2cccc3cccnc23)n1 [Compound 231, 1,4-dimethyl-N-(quinolin-8-yl)-1H-imidazole-2-sulfonamide] | < 0.2 | 0.5 to 5 | – |
| Cc1cccnc1S(=O)(=O)Nc1cccc2ccc(C3CC3)nc12 [Compound 26, N-(2-cyclo-propylquin-olin-8-yl)-3-methylpyr-idine-2-sulfonamide] | 0.5 to 5 | 0.5 to 5 | – |
| CC(C)n1nccc1S(=O)(=O)Nc1c(Cl)ccc2cccnc12 [Compound 77, N-(7-chloro-quinolin-8-yl)-1-iso-propyl-1H-pyrazole-5-sulfonamide] | 0.5 to 5 | 0.2 to 0.5 | – |
| O=S(=O)(Nc1cccc2cccnc12)c1nccn1C1(C(F)(F)F)CC1 [Compound 168, N-(quinolin-8-yl)-1-(1-(trifluoromethyl)cyclopropyl)-1H-imidazole-2-sulfonamide] | 0.2 to 0.5 | < 0.2 | – |
| CCn1ccnc1S(=O)(=O)Nc1cc(C)cc2cccnc12 [Compound 103, 1-ethyl-N-(6-methylquin-olin-8-yl)-1H-imidazole-2-sulfonamide] | 0.2 to 0.5 | 0.5 to 5 | – |
| O=S(=O)(Nc1cccc2cccnc12)c1ccc(C(F)F)nc1 [Compound 153, 6-(difluoromethyl)-N-(quinolin-8-yl)pyridine-3-sulfonamide] | 0.5 to 5 | 0.5 to 5 | – |
| O=S(=O)(Nc1cccc2cccnc12)c1nccn1C1CC1C(F)(F)F (stereo not drawn) [Compound 171, N-(quinolin-8-yl)-1-(2-(trifluoromethyl)cyclopropyl)-1H-imidazole-2-sulfonamide] | 0.2 to 0.5 | < 0.2 | – |
| Cc1ccc(S(=O)(=O)Nc2cccc3cc(F)cnc23)nc1 [Compound 87, N-(3-fluoro-quinolin-8-yl)-5-methyl-pyridine-2-sulfonamide] | 0.2 to 0.5 | < 0.2 | – |
| COc1ccc(NS(=O)(=O)c2ccc(C)cn2)c2ncccc12 [Compound 123, N-(5-methoxy-quinolin-8-yl)-5-methylpyr-idine-2-sulfon-amide] | 0.5 to 5 | < 0.2 | – |
| O=S(=O)(Nc1ccc(F)c2cccnc12)c1ncccc1C1CC1 [Compound 48, 3-cyclo-propyl-N-(5-fluoroquin-olin-8-yl)-pyridine-2-sulfonamide] | 0.5 to 5 | < 0.2 | – |
| COc1cc(NS(=O)(=O)c2ccc(C)cn2)c2ncccc2c1 [Compound 125, N-(6-methoxy-quinolin-8-yl)-5-methylpyr-idine-2-sulfon-amide] | 0.5 to 5 | < 0.2 | – |
| Cc1nc(S(=O)(=O)Nc2cccc3cccnc23)ccc1Cl [Compound 184, 5-chloro-6-methyl-N-(quinolin-8-yl)pyridine-2-sulfonamide] | 0.2 to 0.5 | < 0.2 | – |
| Cc1ncc(S(=O)(=O)Nc2cccc3cccnc23)cc1Cl [Compound 180, 5-chloro-6-methyl-N-(quinolin-8-yl)pyridine-3-sulfonamide] | 0.5 to 5 | 0.5 to 5 | – |
| Cc1cccnc1S(=O)(=O)Nc1cccc2c1N(C)CCC2 [Compound 55, 3-methyl-N-(1-methyl-1,2,3,4-tetra-hydroquin-olin-8-yl)-pyridine-2-sulfonamide] | 0.5 to 5 | 0.5 to 5 | – |
| Cc1cccnc1S(=O)(=O)Nc1c(C2CC2)ccc2cccnc12 [Compound 17, N-(7-cyclo-propylquin-olin-8-yl)-3-methylpyr-idine-2-sulfonamide] | 0.2 to 0.5 | 0.2 to 0.5 | – |
| CCn1ccnc1S(=O)(=O)Nc1cccc2cc(F)cnc12 [Compound 109, 1-ethyl-N-(3-fluoroquinolin-8-yl)-1H-imidazole-2-sulfonamide] | 0.2 to 0.5 | < 0.2 | – |
| Cc1cc(S(=O)(=O)Nc2cccc3cccnc23)ccn1 [Compound 154, 2-methyl-N-(quinolin-8-yl)pyridine-4-sulfonamide] | 0.5 to 5 | 0.2 to 0.5 | – |
| O=S(=O)(Nc1cccc2cccnc12)c1nccc2ccccc12 [Compound 225, N-(quinolin-8-yl)isoquinoline-1-sulfonamide] | 0.5 to 5 | < 0.2 | – |
| Cc1cccnc1S(=O)(=O)Nc1cccc2c(C(F)(F)F)ccnc12 [Compound 13, 3-methyl-N-(4-(trifluoro-methyl)quin-olin-8-yl)pyr-idine-2-sulfonamide] | 0.2 to 0.5 | < 0.2 | – |

| Structure (SMILES) | IC50 (Dirofilaria immitis) [µM] | IC50 [1, 2] [µM] | IC50 ([1]; read-out: O. gutt Activity class, in vitro motility) [µM] |
| --- | --- | --- | --- |
| COc1ccnc(S(=O)(=O)Nc2cccc3cccnc23)c1 [Compound 222, 4-methoxy-N-(quinolin-8-yl)pyridine-2-sulfonamide] | 0.2 to 0.5 | < 0.2 | – |
| Cc1ccc(S(=O)(=O)Nc2cccc3cc(Cl)cnc23)nc1 [Compound 120, N-(3-chloro-quinolin-8-yl)-5-methylpyr-idine-2-sulfon-amide] | 0.2 to 0.5 | 0.2 to 0.5 | – |
| O=S(=O)(Nc1c(Cl)ccc2cccnc12)c1ncccc1F [Compound 98, N-(7-chloro-quinolin-8-yl)-3-fluoro-pyridine-2-sulfonamide] | 0.5 to 5 | < 0.2 | – |
| O=S(=O)(Nc1cccc2cccnc12)c1ncccc1Cl [Compound 215, 3-chloro-N-(quinolin-8-yl)pyridine-2-sulfonamide] | 0.5 to 5 | < 0.2 | – |
| Cc1ncccc1S(=O)(=O)Nc1cccc2cccnc12 [Compound 155, 2-methyl-N-(quinolin-8-yl)pyridine-3-sulfonamide] | 0.5 to 5 | 0.5 to 5 | – |
| CCn1ccnc1S(=O)(=O)Nc1ccc(F)c2cccnc12 [Compound 108, 1-ethyl-N-(5-fluoroquinolin-8-yl)-1H-imidazole-2-sulfonamide] | < 0.2 | 0.5 to 5 | – |
| CN(C)C(=O)c1cccnc1S(=O)(=O)Nc1cccc2cccnc12 [Compound 207, N,N-dimethyl-2-(N-quinolin-8-ylsulfamoyl) nicotinamide] | 0.5 to 5 | 0.5 to 5 | – |
| Cc1nccnc1S(=O)(=O)Nc1ccc(N2CCOCC2)c2cccnc12 [Compound 75, 3-methyl-N-(5-morpho-linoquinolin-8-yl)pyrazine-2-sulfonamide] | 0.5 to 5 | < 0.2 | – |
| O=S(=O)(Nc1cccc2cccnc12)c1ccc(Cl)nc1C(F)(F)F [Compound 176, 6-chloro-N-(quinolin-8-yl)-2-(trifluoromethyl) pyridine-3-sulfonamide] | 0.5 to 5 | 0.2 to 0.5 | – |
| CC(C)c1cccnc1S(=O)(=O)Nc1cccc2cccnc12 [Compound 211, 3-isopropyl-N-(quinolin-8-yl)pyridine-2-sulfonamide] | 0.5 to 5 | < 0.2 | – |
| O=S(=O)(Nc1cccc2cccnc12)c1nccn1C1CC1(F)F (stereo not drawn) [Compound 174, 1-(2,2-difluorocyclo-propyl)-N-(quinolin-8-yl)-1H-imidazole-2-sulfonamide] | 0.2 to 0.5 | < 0.2 | – |
| CCn1ccnc1S(=O)(=O)Nc1cccc2cc(OC)cnc12 [Compound 86, 1-ethyl-N-(3-methoxyquin-olin-8-yl)-1H-imidazole-2-sulfonamide] | 0.2 to 0.5 | < 0.2 | – |
| Cc1cc(C)c(S(=O)(=O)Nc2cccc3cccnc23)c(Cl)n1 [Compound 177, 2-chloro-4,6-dimethyl-N-(quinolin-8-yl)pyridine-3-sulfonamide] | 0.5 to 5 | 0.5 to 5 | – |
| Cc1nc(Cl)ccc1S(=O)(=O)Nc1cccc2cccnc12 [Compound 179, 6-chloro-2-methyl-N-(quinolin-8-yl)pyridine-3-sulfonamide] | 0.5 to 5 | < 0.2 | – |
| Cc1ccc(S(=O)(=O)Nc2c(Cl)ccc3cccnc23)nc1 [Compound 114, N-(7-chloro-quinolin-8-yl)-5-methylpyr-idine-2-sulfon-amide] | 0.5 to 5 | < 0.2 | – |
| Cc1ccc(S(=O)(=O)Nc2cccc3cccnc23)o1 [Compound 276, 5-methyl-N-(quinolin-8-yl)furan-2-sulfonamide] | 0.2 to 0.5 | 0.2 to 0.5 | – |
| Cc1cccc(S(=O)(=O)Nc2cccc3cccnc23)n1 [Compound 272, 6-methyl-N-(quinolin-8-yl)pyridine-2-sulfonamide] | 0.5 to 5 | < 0.2 | – |
| O=S(=O)(Nc1cccc2cccnc12)c1ccc(C(F)(F)F)nc1 [Compound 190, N-(quinolin-8-yl)-6-(trifluoromethyl) pyridine-3-sulfonamide] | < 0.2 | < 0.2 | – |
| CCn1ccnc1S(=O)(=O)Nc1ccc(C)c2cccnc12 [Compound 83, 1-ethyl-N-(5-methylquin-olin-8-yl)-1H-imidazole-2-sulfonamide] | 0.2 to 0.5 | < 0.2 | – |
| CN(C)c1cccnc1S(=O)(=O)Nc1cccc2c1N(C1CC1)CCC2 [Compound 42, N-(1-cyclo-propyl-1,2,3,4-tetra-hydroquin-olin-8-yl)-3-(dimethyl-amino)pyr-idine-2-sulfonamide] | 0.5 to 5 | 0.5 to 5 | – |
| Cc1ccnc(S(=O)(=O)Nc2cccc3cccnc23)c1 [Compound 265, 4-methyl-N-(quinolin-8-yl)pyridine-2-sulfonamide] | 0.2 to 0.5 | – | < 0.2 |
| N#Cc1cccc(S(=O)(=O)Nc2ccc(N3CCOCC3)c3cccnc23)c1 [Compound 80, 3-cyano-N-(5-morpho-linoquinolin-8-yl)ben-zenesulfon-amide] | 0.5 to 5 | < 0.2 | – |
